In the NIST ThermoML archive (doi:10.1016/j.jct.2014.07.023):
Numbers after ± are expanded uncertainties.

Assay: molar heat capacity at constant pressure; xn = mol fraction of the nth substance listed
Conditions: 100 kPa, Liquid, Small sample (50 mg) DSC

CC(O)C(C)O (stereo unspecified) [2,3-butanediol] + CO
molar heat capacity at constant pressure [J/K/mol]
Conditions	293.15 K	298.15 K	303.15 K	308.15 K	313.15 K	318.15 K	323.15 K
x1 = 0.0456	86.73 ± 3.7	87.8 ± 3.7	88.95 ± 3.8	90.13 ± 3.8	91.37 ± 3.9	92.66 ± 3.9	94.01 ± 4
x1 = 0.0847	92.44 ± 3.9	93.66 ± 4	94.92 ± 4	96.21 ± 4.1	97.54 ± 4.1	98.95 ± 4.2	100.35 ± 4.3
x1 = 0.1972	108.82 ± 4.6	110.3 ± 4.7	111.78 ± 4.7	113.35 ± 4.8	114.96 ± 4.9	116.61 ± 5	118.31 ± 5
x1 = 0.2792	121.32 ± 5.2	122.96 ± 5.2	124.65 ± 5.3	126.34 ± 5.4	128.08 ± 5.5	129.81 ± 5.5	131.6 ± 5.6
x1 = 0.3824	136.66 ± 5.8	138.56 ± 5.9	140.46 ± 6	142.41 ± 6	144.36 ± 6.1	146.37 ± 6.2	148.43 ± 6.3
x1 = 0.4673	150.38 ± 6.4	152.39 ± 6.5	154.41 ± 6.6	156.48 ± 6.6	158.55 ± 6.7	160.68 ± 6.8	162.81 ± 6.9
x1 = 0.5862	168.13 ± 7.1	170.37 ± 7.2	172.69 ± 7.3	174.93 ± 7.4	177.25 ± 7.5	179.63 ± 7.6	182.01 ± 7.7
x1 = 0.7041	186.64 ± 7.9	189.05 ± 8	191.46 ± 8.1	193.94 ± 8.2	196.41 ± 8.3	198.89 ± 8.5	201.45 ± 8.5
x1 = 0.8169	204.52 ± 11	207.14 ± 11	209.84 ± 11	212.55 ± 11	215.17 ± 11	217.87 ± 12	220.58 ± 12
x1 = 0.8832	214.76 ± 9.1	217.34 ± 9.3	220.01 ± 9.3	222.68 ± 9.4	225.26 ± 9.6	227.93 ± 9.7	230.59 ± 9.8
x1 = 0.9271	221.76 ± 9.4	224.59 ± 9.5	227.34 ± 9.6	230.18 ± 9.8	233.01 ± 9.9	235.93 ± 10	238.77 ± 10
x1 = 0.9501	225.38 ± 9.6	228 ± 9.7	230.7 ± 9.8	233.32 ± 9.9	236.11 ± 10	238.82 ± 10	241.61 ± 10
x1 = 1	233.95 ± 9.9	236.66 ± 10	239.36 ± 10	242.07 ± 10	244.77 ± 10	247.47 ± 11	250.18 ± 11
